# Reference: patent publication US20170065517A1, “COMPOSITIONS FOR […] AGENTS ACROSS THE ORAL MUCOSA AND METHODS OF USE THEREOF” (PARATEK PHARMACEUTICALS, INC., priority 2004, published 2017)
# Assay: Zolpidem membrane assay (lipid-coated dodecane membrane between donor and acceptor cell)
# Format: in vitro ADME
# Settings: zolpidem tartrate solutions
# Procedure: Topics Med. Chem., 1:277-351 (2001). This assay uses a lipid-coated membrane to predict lipid mucosal membrane penetration. The membrane apparatus consists of a dodecane membrane sandwiched between a donor and acceptor cell. The lipid-coated membrane is less porous then the mucous membrane of the oral cavity. Thus, the enhancement seen in the membrane assay is very likely to be magnified in vivo.
# Membrane assays were performed using zolpidem tartrate solutions at a pH of 5.8, 6.8, and 7.8. The alkaline pH values of 7.8 were adjusted using freshly prepared 0.01 M sodium bicarbonate/sodium carbonate buffer solution. The acidic pH of 5.8 was achieved using a 0.01 M acetate buffer solution (a mixture of sodium acetate and acetic acid). The neutral pH of 6.8 was achieved by adding 0.01 M acetate solution to the sodium bicarbonate/sodium carbonate buffer solution. Permeation through the membrane was measured by determining the concentration of zolpidem in the acceptor cell and is expressed as Pc (effective permeability in centimeters per second).
smiles,measurement,setting,value
Cc1ccc(-c2nc3ccc(C)cn3c2CC(=O)N(C)C)cc1 [zolpidem],increase of effective permeability (Pc),pH 7.8 relative to pH 5.8,129%
same,increase of effective permeability (Pc),pH 7.8 relative to pH 6.8,more than 53%
